# Results published in patent US9908868B2, “Isoindolinone compounds as GPR119 modulators for the treatment of diabetes, obesity, dyslipidemia and related disorders” (SANOFI, priority 2014, dated 2018).
# pEC50: −log10 of the molar value.
# Target: T1, human GPR119 (Homo sapiens, UniProt Q8TDV5)
# T1 construct: expressed in transfected cells
# T1 sequence (Q8TDV5 1-335): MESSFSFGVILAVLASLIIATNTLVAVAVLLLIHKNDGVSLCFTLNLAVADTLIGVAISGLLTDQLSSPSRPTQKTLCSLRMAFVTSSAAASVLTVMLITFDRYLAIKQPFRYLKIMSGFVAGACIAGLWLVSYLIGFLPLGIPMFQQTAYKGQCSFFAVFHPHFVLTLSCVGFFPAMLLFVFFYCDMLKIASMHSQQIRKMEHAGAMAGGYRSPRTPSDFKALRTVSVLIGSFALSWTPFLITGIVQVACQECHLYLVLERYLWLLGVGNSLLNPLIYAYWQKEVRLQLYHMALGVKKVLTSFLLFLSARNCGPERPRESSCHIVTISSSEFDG
# Assay: Functional cellular assay measuring GPR119-mediated cAMP release (HTRF) in HEK-293 cells stably expressing recombinant human GPR119
# Assay type: cell-based
# Settings: cAMP response, cell line expressing human GPR119, 30 minutes at room temperature
# Protocol: Functional Cellular Assays Measuring GPR119-Mediated cAMP Release
# Compounds of the invention, which are agonists of GPR119, were characterized by functional assays measuring the cAMP response of HEK-293 cell lines stably expressing recombinant GPR119 from man, mouse or rat, or by using a hamster cell line HIT-T15 expressing GPR119 endogenously. The cAMP content was determined using a kit based on homogenous time-resolved fluorescence (HTRF) from Cisbio Corp. (cat. no. 62AM4PEC). For preparation, cells were split into T175 culture flasks and grown to near confluency in medium (DMEM/10% FCS for HEK-293 cells, and F-12K medium/10% horse serum/2.5% FCS for HIT-T15 cells, respectively). Medium was then removed and cells washed with PBS lacking calcium and magnesium ions, followed by proteinase treatment with accutase (Sigma-Aldrich, cat. no. A6964). Detached cells were washed and resuspended in assay buffer (1×HBSS; 20 mM HEPES, 0.1% BSA, 2 mM IBMX) and cellular density determined. They were then diluted to 400000 cells/mL and 25 μL-aliquots dispensed to the wells of 96-well plates. For measurement, 25 μL of test compound in assay buffer was added and incubated for 30 minutes at room temperature. After addition of HTRF reagents diluted in lysis buffer, the plates were incubated for 1 hour, followed by measuring the fluorescence ratio at 665 vs. 620 nm. Potency of the agonists was quantified by determining the concentrations that caused 50% of the maximal response/activation (EC50). See Table 7 for exemplary data obtained using the cell line expressing human GPR119.
row,Compound,pEC50
1,"C[S+]([O-])CN1Cc2ccc(N3CC[C@@H](Oc4ccc(OCC5CC5)nc4)C3=O)cc2C1=O (stereo partly drawn) [Example 1-52, 6-[(3R)-3-[[6-(cyclopropylmethoxy)-3-pyridyl]oxy]-2-oxo-pyrrolidin-1-yl]-2-(methylsulfinylmethyl)isoindolin-1-one]",6.91
2,"C[S+]([O-])CN1Cc2ncc(N3CC[C@@H](Oc4ccc(C(=O)C5CC5)nc4)C3=O)cc2C1=O (stereo partly drawn) [Example 1-57, 3-[(3R)-3-[[6-(cyclopropanecarbonyl)-3-pyridyl]oxy]-2-oxo-pyrrolidin-1-yl]-6-(methylsulfinylmethyl)-7H-pyrrolo[3,4-b]pyridin-5-one]",5.95
3,"C[S+]([O-])CN1Cc2ccc(N3CC[C@@H](Oc4ccc(C(=O)C5CC5)nc4)C3=O)cc2C1=O (stereo partly drawn) [Example 1-58, 6-[(3R)-3-[[6-(cyclopropanecarbonyl)-3-pyridyl]oxy]-2-oxo-pyrrolidin-1-yl]-2-(methylsulfinylmethyl)isoindolin-1-one]",6.17
4,"CS(=O)(=O)CN1Cc2ccc(N3CC[C@@H](Oc4ccc(C(=O)C5CC5)nc4)C3=O)cc2C1=O [Example 1-59, 6-[(3R)-3-[[6-(cyclopropanecarbonyl)-3-pyridyl]oxy]-2-oxo-pyrrolidin-1-yl]-2-(methylsulfonylmethyl)isoindolin-1-one]",6.35
5,"C[S+]([O-])CN1Cc2ccc(N3CC[C@@H](Oc4ccc(C(=O)C5CC5)cc4)C3=O)cc2C1=O (stereo partly drawn) [Example 1-60, 6-[(3R)-3-[4-(cyclopropanecarbonyl)phenoxy]-2-oxo-pyrrolidin-1-yl]-2-(methylsulfinylmethyl)isoindolin-1-one]",6.83
6,"C[S+]([O-])CN1Cc2ncc(N3CC[C@@H](Oc4ccc(C(=O)C5CC5)cc4)C3=O)cc2C1=O (stereo partly drawn) [Example 1-61, 3-[(3R)-3-[4-(cyclopropanecarbonyl)phenoxy]-2-oxo-pyrrolidin-1-yl]-6-(methylsulfinylmethyl)-7H-pyrrolo[3,4-b]pyridin-5-one]",6.29
7,"CS(=O)(=O)CN1Cc2ncc(N3CC[C@@H](Oc4ccc(C(=O)C5CC5)cc4)C3=O)cc2C1=O [Example 1-62, 3-[(3R)-3-[4-(cyclopropanecarbonyl)phenoxy]-2-oxo-pyrrolidin-1-yl]-6-(methylsulfonylmethyl)-7H-pyrrolo[3,4-b]pyridin-5-one]",6.86
8,"CS(=O)(=O)CN1Cc2ncc(N3CC[C@@H](Oc4ccc(Oc5ccc(F)cc5)nc4)C3=O)cc2C1=O [Example 1-66, 3-[(3R)-3-[[6-(4-fluorophenoxy)-3-pyridyl]oxy]-2-oxo-pyrrolidin-1-yl]-6-(methylsulfonylmethyl)-7H-pyrrolo[3,4-b]pyridin-5-one]",6.79
9,"C[S@+]([O-])CN1Cc2ncc(N3CC[C@@H](Oc4ccc(OCC(F)(F)F)nc4)C3=O)cc2C1=O [Example 1-68, 6-((S)-methanesulfinylmethyl)-3-{(R)-2-oxo-3-[6-(2,2,2-trifluoro-ethoxy)-pyridin-3-yloxy]-pyrrolidin-1-yl}-6,7-dihydro-pyrrolo[3,4-b]pyridin-5-one]",6.84
10,"C[S@@+]([O-])CN1Cc2ncc(N3CC[C@@H](Oc4ccc(OCC(F)(F)F)nc4)C3=O)cc2C1=O [Example 1-69, 6-((R)-methanesulfinylmethyl)-3-{(R)-2-oxo-3-[6-(2,2,2-trifluoro-ethoxy)-pyridin-3-yloxy]-pyrrolidin-1-yl}-6,7-dihydro-pyrrolo[3,4-b]pyridin-5-one]",6.88
11,"CN(C)C(=O)CN1Cc2ccc(N3CC[C@@H](Oc4ccc(CCC5CC5)nc4)C3=O)cc2C1=O [Example 2-04, 2-[6-[(3R)-3-[[6-(2-cyclopropylethyl)-3-pyridyl]oxy]-2-oxo-pyrrolidin-1-yl]-1-oxo-isoindolin-2-yl]-N,N-dimethyl-acetamide]",6.81
12,"Cc1cc(O[C@@H]2CCN(c3ccc4c(c3)C(=O)N(CC(=O)N(C)C)C4)C2=O)cnc1OCC1CC1 [Example 2-07, 2-[6-[(3R)-3-[[6-(cyclopropylmethoxy)-5-methyl-3-pyridyl]oxy]-2-oxo-pyrrolidin-1-yl]-1-oxo-isoindolin-2-yl]-N,N-dimethyl-acetamide]",6.94
13,"CN(C)C(=O)CN1Cc2ccc(N3CC[C@@H](Oc4ccc(NCC5CC5)nc4)C3=O)cc2C1=O [Example 2-08, 2-[6-[(3R)-3-[[6-(cyclopropylmethylamino)-3-pyridyl]oxy]-2-oxo-pyrrolidin-1-yl]-1-oxo-isoindolin-2-yl]-N,N-dimethyl-acetamide]",5.67

# Now those with a higher pEC50, led by results:
row,pEC50,Compound
1,6.97,"C[S+]([O-])CN1Cc2ncc(N3CC[C@@H](Oc4ccc(Oc5ccc(F)cc5)nc4)C3=O)cc2C1=O (stereo partly drawn) [Example 1-55, 3-[(3R)-3-[[6-(4-fluorophenoxy)-3-pyridyl]oxy]-2-oxo-pyrrolidin-1-yl]-6-(methylsulfinylmethyl)-7H-pyrrolo[3,4-b]pyridin-5-one]"
2,6.97,"CN(C)C(=O)CN1Cc2ccc(N3CC[C@@H](Oc4ccc(OC(F)(F)F)cc4)C3=O)cc2C1=O [Example 2-01, N,N-dimethyl-2-[1-oxo-6-[(3R)-2-oxo-3-[4-(trifluoromethoxy)phenoxy]pyrrolidin-1-yl]isoindolin-2-yl]acetamide]"
3,6.98,"C[S+]([O-])CN1Cc2ncc(N3CC[C@@H](Oc4ccc(OCC(F)(F)F)nc4)C3=O)cc2C1=O (stereo partly drawn) [Example 1-63, 6-(methylsulfinylmethyl)-3-[(3R)-2-oxo-3-[[6-(2,2,2-trifluoroethoxy)-3-pyridyl]oxy]pyrrolidin-1-yl]-7H-pyrrolo[3,4-b]pyridin-5-one]"
4,7.01,"CS(=O)(=O)CN1Cc2ccc(N3CC[C@@H](Oc4ccc(Oc5ccc(F)cc5)nc4)C3=O)cc2C1=O [Example 1-53, 6-[(3R)-3-[[6-(4-fluorophenoxy)-3-pyridyl]oxy]-2-oxo-pyrrolidin-1-yl]-2-(methylsulfonylmethyl)isoindolin-1-one]"
5,7.09,"CN(C)C(=O)CN1Cc2ccc(N3CC[C@@H](Oc4cnc(OCC5CC5)c(F)c4)C3=O)cc2C1=O [Example 2-06, 2-[6-[(3R)-3-[[6-(cyclopropylmethoxy)-5-fluoro-3-pyridyl]oxy]-2-oxo-pyrrolidin-1-yl]-1-oxo-isoindolin-2-yl]-N,N-dimethyl-acetamide]"
6,7.09,"CS(=O)(=O)CN1Cc2ncc(N3CC[C@@H](Oc4ccc(OCC(F)(F)F)nc4)C3=O)cc2C1=O [Example 1-67, 6-(methylsulfonylmethyl)-3-[(3R)-2-oxo-3-[[6-(2,2,2-trifluoroethoxy)-3-pyridyl]oxy]pyrrolidin-1-yl]-7H-pyrrolo[3,4-b]pyridin-5-one]"
7,7.18,"C[S+]([O-])CN1Cc2ccc(N3CC[C@@H](Oc4ccc(OCC(F)(F)F)nc4)C3=O)cc2C1=O (stereo partly drawn) [Example 1-54, 2-(methylsulfinylmethyl)-6-[(3R)-2-oxo-3-[[6-(2,2,2-trifluoroethoxy)-3-pyridyl]oxy]pyrrolidin-1-yl]isoindolin-1-one]"
8,7.21,"CN(C)C(=O)CN1Cc2ccc(N3CC[C@@H](Oc4ccc(OCC(F)(F)F)nc4)C3=O)cc2C1=O [Example 2-05, N,N-dimethyl-2-[1-oxo-6-[(3R)-2-oxo-3-[[6-(2,2,2-trifluoroethoxy)-3-pyridyl]oxy]pyrrolidin-1-yl]isoindolin-2-yl]acetamide]"
9,7.25,"CN(C)C(=O)CN1Cc2ccc(N3CC[C@@H](Oc4ccc(CCCC5CC5)nc4)C3=O)cc2C1=O [Example 2-02, 2-[6-[(3R)-3-[[6-(3-cyclopropylpropyl)-3-pyridyl]oxy]-2-oxo-pyrrolidin-1-yl]-1-oxo-isoindolin-2-yl]-N,N-dimethyl-acetamide]"
10,7.27,"CN(C)C(=O)CN1Cc2ccc(N3CC[C@@H](Oc4ccc(O[C@H]5C[C@@H]6C[C@@H]6C5)nc4)C3=O)cc2C1=O [Example 2-03, 2-[6-[(3R)-3-[[6-[[(1S,5R)-3-bicyclo[3.1.0]hexanyl]oxy]-3-pyridyl]oxy]-2-oxo-pyrrolidin-1-yl]-1-oxo-isoindolin-2-yl]-N,N-dimethyl-acetamide]"
11,7.28,"COC(=O)CN1Cc2ccc(N3CC[C@@H](Oc4ccc(OCC(F)(F)F)nc4)C3=O)cc2C1=O [Example 1-65, methyl 2-[1-oxo-6-[(3R)-2-oxo-3-[[6-(2,2,2-trifluoroethoxy)-3-pyridyl]oxy]pyrrolidin-1-yl]isoindolin-2-yl]acetate]"
12,7.29,"NC(=O)CN1Cc2ccc(N3CC[C@@H](Oc4ccc(OCC(F)(F)F)nc4)C3=O)cc2C1=O [Example 1-56, 2-[1-oxo-6-[(3R)-2-oxo-3-[[6-(2,2,2-trifluoroethoxy)-3-pyridyl]oxy]pyrrolidin-1-yl]isoindolin-2-yl]acetamide]"
13,7.57,"CCOC(=O)CN1Cc2ccc(N3CC[C@@H](Oc4ccc(OCC(F)(F)F)nc4)C3=O)cc2C1=O [Example 1-64, ethyl 2-[1-oxo-6-[(3R)-2-oxo-3-[[6-(2,2,2-trifluoroethoxy)-3-pyridyl]oxy]pyrrolidin-1-yl]isoindolin-2-yl]acetate]"
